According to US10577363B2, “Substituted piperidine compounds” (EPIZYME, INC., priority 2014, dated 2020):

Experiments:
[1] = biological target: T1, SMYD3 (Homo sapiens (Human), UniProt Q9H7B4); test: SMYD3 biochemical assay (SPA, 3H-SAM methylation of MEKK2 protein substrate); conditions: average of n = 1 to n = 50; read-out: SMYD3 Biochem IC50
Summary of the method: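 Tritium incorporation into GST-MEKK2 is counted by scintillation proximity after citric acid bead capture. Native human SMYD3 is preincubated with test compound for 30 min at room temperature at pH 8.0 (Tris-Cl, TCEP, BSG, Tween 20) before 3H-SAM and substrate are added; cold SAM at 100 uM final stops turnover.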

[2] = biological target: T1, SMYD3; test: SMYD3 cell assay (Trimethyl-MEKK2 In-Cell Western in 293T/17 cells); type: cell-based; conditions: average of n = 1 to n = 50; read-out: SMYD3 Cell IC50
Summary of the method: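 In-Cell Western ratio of trimethyl-Lys260 MEKK2 to anti-flag signal; percent inhibition from DMSO and maximum-inhibition controls, IC50 by non-linear regression, triplicates.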

T1 sequence (Q9H7B4 whole entry): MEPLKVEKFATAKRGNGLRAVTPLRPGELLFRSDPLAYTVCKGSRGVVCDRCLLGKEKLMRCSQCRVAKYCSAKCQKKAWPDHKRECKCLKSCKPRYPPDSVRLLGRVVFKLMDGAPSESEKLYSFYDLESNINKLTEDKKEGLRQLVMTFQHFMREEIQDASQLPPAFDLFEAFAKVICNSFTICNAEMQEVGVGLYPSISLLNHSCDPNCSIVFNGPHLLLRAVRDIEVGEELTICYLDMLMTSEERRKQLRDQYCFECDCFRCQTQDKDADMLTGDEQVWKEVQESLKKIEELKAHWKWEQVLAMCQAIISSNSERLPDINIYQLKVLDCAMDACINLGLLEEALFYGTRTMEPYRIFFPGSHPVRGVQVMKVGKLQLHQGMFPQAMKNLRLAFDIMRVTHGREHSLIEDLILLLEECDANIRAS

SMILES	IC50 [1]	IC50 [2]
C[C@H]1CN(S(=O)(=O)CC2CCN(Cc3ccccc3)CC2)CC[C@H]1NC(=O)c1cc(C2CC2)on1 [compound 655, N-((3S,4R)-1-(((1-benzylpiperidin-4-yl)methyl)sulfonyl)-3-methylpiperidin-4-yl)-5-cyclopropylisoxazole-3-carboxamide]	56.4 nM	497 nM
CN1CCN(S(=O)(=O)N2[C@@H]3CC[C@H]2C[C@@H](NC(=O)c2cc(C4CC4)on2)C3)CC1(C)C [compound 656, 5-cyclopropyl-N-((1R,3r,5S)-8-((3,3,4-trimethylpiperazin-1-yl)sulfonyl)-8-azabicyclo[3.2.1]octan-3-yl)isoxazole-3-carboxamide]	59.8 nM	441 nM
C[C@@H]1C[C@H](NC(=O)c2cc(C3CC3)on2)CCN1C(=O)c1ccc(CN2CCNCC2)cc1 [compound 658, 5-cyclopropyl-N-((2R,4R)-2-methyl-1-(4-(piperazin-1-ylmethyl)benzoyl)piperidin-4-yl)isoxazole-3-carboxamide]	64.7 nM	1400 nM
CN(C1CCN(Cc2ccccc2)CC1)S(=O)(=O)N1[C@@H]2CC[C@H]1C[C@@H](NC(=O)c1cc(C3CC3)on1)C2 [compound 659, N-((1R,3r,5S)-8-(N-(1-benzylpiperidin-4-yl)-N-methylsulfamoyl)-8-azabicyclo[3.2.1]octan-3-yl)-5-cyclopropylisoxazole-3-carboxamide]	66.4 nM	578 nM
CC1CN(S(=O)(=O)N2[C@@H]3CC[C@H]2C[C@@H](NC(=O)c2cc(C4CC4)on2)C3)CCN1C (stereo partly drawn) [compound 660, 5-cyclopropyl-N-((1R,3r,5S)-8-((3,4-dimethylpiperazin-1-yl)sulfonyl)-8-azabicyclo[3.2.1]octan-3-yl)isoxazole-3-carboxamide]	66.7 nM	414 nM
O=C(N[C@H]1C[C@H]2CC[C@@H](C1)N2S(=O)(=O)CCN1CCC(N2CCCCC2)C1)c1cc(C2CC2)on1 (stereo partly drawn) [compound 663, 5-cyclopropyl-N-((1R,3r,5S)-8-((2-(3-(piperidin-1-yl)pyrrolidin-1-yl)ethyl)sulfonyl)-8-azabicyclo[3.2.1]octan-3-yl)isoxazole-3-carboxamide]	85.1 nM	670 nM
C[C@@H]1CNCCN1S(=O)(=O)N1CC[C@H](NC(=O)c2cc(C3CC3)on2)C[C@@H]1C [compound 666, 5-cyclopropyl-N-((2S,4S)-2-methyl-1-(((R)-2-methylpiperazin-1-yl)sulfonyl)piperidin-4-yl)isoxazole-3-carboxamide]	90.6 nM	801 nM

More lines, now with the values ahead:

IC50 [1]	IC50 [2]	SMILES
63.4 nM	634 nM	C[C@@H]1CN(C(=O)c2ccc(C(C)(C)N)cc2)[C@H](C)C[C@@H]1NC(=O)c1cc(C2CC2)on1 [compound 657, N-((2R,4S,5R)-1-(4-(2-aminopropan-2-yl)benzoyl)-2,5-dimethylpiperidin-4-yl)-5-cyclopropylisoxazole-3-carboxamide]
77.3 nM	490 nM	C[C@@H]1CN(S(=O)(=O)N2CC[C@H](NC(=O)c3cc(C4CC4)on3)C[C@@H]2C)[C@@H](C)CN1 [compound 661, 5-cyclopropyl-N-((2S,4S)-1-(((2S,5R)-2,5-dimethylpiperazin-1-yl)sulfonyl)-2-methylpiperidin-4-yl)isoxazole-3-carboxamide]
80.1 nM	1550 nM	O=C(N[C@H]1CCN(S(=O)(=O)CC2CCN(CCO)CC2)[C@@H](Cc2ccccc2)C1)c1cc(C2CC2)on1 [compound 662, N-((2S,4S)-2-benzyl-1-(((1-(2-hydroxyethyl)piperidin-4-yl)methyl)sulfonyl)piperidin-4-yl)-5-cyclopropylisoxazole-3-carboxamide]
86.6 nM	1070 nM	C[C@@H]1C[C@H](NC(=O)c2cc(C3CC3)on2)CCN1C(=O)c1ccc([C@@H](C)N)cc1 [compound 664, N-((2R,4R)-1-(4-((R)-1-aminoethyl)benzoyl)-2-methylpiperidin-4-yl)-5-cyclopropylisoxazole-3-carboxamide]
